The values below come from patent US20250340563A1, “FUSED PYRIDAZINE DERIVATIVES AS NLRP3 INHIBITORS” (Takeda Pharmaceutical Company Limited, priority 2022, published 2025).

Structures are written as SMILES.

For the experiment, the target named is NLRP3 inflammasome (Homo sapiens, UniProt Q96P20). As to the kind of experiment: IL-1β assay in IFN-γ-differentiated, LPS-primed, ATP-activated THP-1 cells (ELISA). Particulars: 50 ng/mL LPS priming, 2.5 mM ATP activation, 2 hours. In kind it is cell-based. The protocol:
Monocytic THP-1 cells (ATCC: TIB-202) are maintained in accordance with the provider's instructions in RPMI media (Life Technologies, Cat #A10491-01); RPMI is supplemented with 10% heat inactivated fetal bovine serum (Hyclone Cat #SH30396.03). The cells are differentiated into macrophages by the addition of 25 ng/mL IFN-7 (PeproTech, Cat #300-02-100UG) for 24 hours at 37° C./5% CO2. Media is exchanged with fresh media with no FBS, and the cells are treated with 50 ng/mL LPS (priming step) for 24 hours at 37° C./5% CO2 (LPS-EK: Invivogen, Cat #tlrl-peklps). Media is exchanged with fresh media with no FBS. The cells are plated at 40,000 cells per well in 384-well flat-bottom cell culture plates (Costar 3764) containing compounds (added in 1:1000) in a 1:3.16 serial dilution series in DMSO and are incubated for 30 minutes at 37° C./5% CO2. The NLRP3 inflammasome is activated with the addition of 2.5 mM ATP (Sigma Cat #A3377) and the cells are incubated for 2 hours at 37° C./5% CO2. At the end of the incubation period, 40 μL supernatant is removed, and […] are monitored using an ELISA (Human […], R&D systems, Cat #DY201) in accordance with the manufacturer's instructions.
The IC50 values are calculated from a plot of percentage of inhibition versus the inhibitor concentration by a logistics curve fit according to: Y=[Bottom+(Top−Bottom)]/(1+10^[(Log IC50−X)·Hill Slope], where Y is the % inhibition at the inhibitor concentration, X, “Bottom” is the lowest inhibition value, i.e. 0%, “Top” is the maximum inhibition value, i.e. 100%, and the “Hill Slope” describes the slope of the sigmoidal curve between the “Bottom” and “Top” values. The curve fitting was conducted with internally developed software.

One may read the IC50 as the concentration that inhibits the measured activity by half. Low values mean inhibition by little substance, high ones a need for much substance.

Sequence of NLRP3 inflammasome (Q96P20 whole entry): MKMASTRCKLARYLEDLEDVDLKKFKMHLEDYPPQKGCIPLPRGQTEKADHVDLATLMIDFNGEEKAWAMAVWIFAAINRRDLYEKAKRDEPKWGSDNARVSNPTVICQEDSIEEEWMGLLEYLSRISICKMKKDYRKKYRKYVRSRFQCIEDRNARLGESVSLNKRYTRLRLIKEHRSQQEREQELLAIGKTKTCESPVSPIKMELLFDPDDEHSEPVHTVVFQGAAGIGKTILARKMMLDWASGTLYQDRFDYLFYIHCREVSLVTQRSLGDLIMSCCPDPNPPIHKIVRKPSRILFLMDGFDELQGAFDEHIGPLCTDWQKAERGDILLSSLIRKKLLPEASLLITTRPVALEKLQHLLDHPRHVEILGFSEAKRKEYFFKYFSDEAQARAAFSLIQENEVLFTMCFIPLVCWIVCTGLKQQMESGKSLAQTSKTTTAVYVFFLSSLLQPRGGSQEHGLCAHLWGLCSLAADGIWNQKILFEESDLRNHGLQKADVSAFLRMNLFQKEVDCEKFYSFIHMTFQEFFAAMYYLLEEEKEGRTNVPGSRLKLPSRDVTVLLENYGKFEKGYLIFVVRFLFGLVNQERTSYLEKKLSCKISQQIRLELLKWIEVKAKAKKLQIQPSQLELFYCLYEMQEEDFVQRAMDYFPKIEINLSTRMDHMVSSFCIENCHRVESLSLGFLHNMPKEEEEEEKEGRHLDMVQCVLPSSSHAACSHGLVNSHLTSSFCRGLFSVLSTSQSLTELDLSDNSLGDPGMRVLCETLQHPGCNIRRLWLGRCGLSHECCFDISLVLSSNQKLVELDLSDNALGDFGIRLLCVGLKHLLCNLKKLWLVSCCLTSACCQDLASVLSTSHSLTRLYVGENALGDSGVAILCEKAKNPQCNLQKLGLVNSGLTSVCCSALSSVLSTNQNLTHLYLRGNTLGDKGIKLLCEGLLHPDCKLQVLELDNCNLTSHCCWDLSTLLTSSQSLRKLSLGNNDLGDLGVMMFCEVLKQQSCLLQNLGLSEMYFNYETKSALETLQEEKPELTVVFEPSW

As for `Cc1cccc(-c2nnc(NC3CCCN(C)C3)c3ccccc23)c1` (centres unmarked) [Example 18, N-(1-methylpiperidin-3-yl)-4-(m-tolyl)phthalazin-1-amine], the IC50 came to 1150 nM.
The figure for `FCCN1CCC(Nc2nnc(-c3ccc(Cl)cc3)c3ccccc23)C1` (centres unmarked) [Example 143, 4-(4-chlorophenyl)-N-(1-(2-fluoroethyl)pyrrolidin-3-yl)phthalazin-1-amine] is 1590 nM; for `CN1CCc2c(NC3CCCN(C)C3)nnc(-c3ccc(Cl)cc3)c2C1` (centres unmarked) [Example 99, 4-(4-chlorophenyl)-6-methyl-N-(1-methylpiperidin-3-yl)-5,6,7,8-tetrahydropyrido[3,4-d]pyridazin-1-amine] it is 2040 nM.
On to `C[C@]1(O)CC[C@H](Nc2nnc(-c3ccc(Cl)cc3)c3ccccc23)CC1` [Example 121, trans-4-((4-(4-chlorophenyl)phthalazin-1-yl)amino)-1-methylcyclohexan-1-ol], for which the IC50 turned out to be 3980 nM.
Compound `CC(C)(C)c1ccc(-c2nnc(Nc3cccc(O)c3)c3ccccc23)cc1` [Example 5, 3-((4-(4-(tert-butyl)phenyl)phthalazin-1-yl)amino)phenol] had an IC50 of 1440 nM.
Regarding `FC1(F)CNCC(Nc2nnc(-c3ccc(Cl)cc3)c3ccccc23)C1` (centres unmarked) [Example 191, 4-(4-chlorophenyl)-N-(5,5-difluoropiperidin-3-yl)phthalazin-1-amine], inhibition was half-maximal at 1290 nM (IC50).
The figure for `CC(=O)N1CCc2c(-c3ccc(Cl)cc3)nnc(NC3CCCN(C)C3)c2C1` (centres unmarked) [Example 105, 1-(1-(4-chlorophenyl)-4-((1-methylpiperidin-3-yl)amino)-7,8-dihydropyrido[3,4-d]pyridazin-6(5H)-yl)ethan-1-one] is 955 nM; for `CC12CCC(Nc3nnc(-c4ccc(Cl)cc4)c4ccccc34)(CO1)C2` (centres unmarked) [Example 136, 4-(4-chlorophenyl)-N-(1-methyl-2-oxabicyclo[2.2.1]heptan-4-yl)phthalazin-1-amine] it is 3720 nM; for `COc1cc(Cl)ccc1-c1nnc(NC2CCCN(C)C2)c2cnccc12` (centres unmarked) [Example 47, 1-(4-chloro-2-methoxyphenyl)-N-(1-methylpiperidin-3-yl)pyrido[3,4-d]pyridazin-4-amine] it is 692 nM.
The compound `CN1C[C@H](F)C[C@@H](Nc2nnc(-c3ccc(Cl)cc3F)c3cnccc23)C1` [Example 183, 4-(4-chloro-2-fluorophenyl)-N-((3R,5R)-5-fluoro-1-methylpiperidin-3-yl)pyrido[3,4-d]pyridazin-1-amine] showed an IC50 of 589 nM.
The figure for `COc1ccc(-c2nnc(NC3CCCC(C)(O)C3)c3ccccc23)cc1` (centres unmarked) [Example 137, 3-((4-(4-methoxyphenyl)phthalazin-1-yl)amino)-1-methylcyclohexan-1-ol] is 3800 nM; for `CN1CCC[C@@H](Nc2nnc(-c3ccc(OC(F)F)cc3F)c3ccncc23)C1` [Example 92, (R)-1-(4-(difluoromethoxy)-2-fluorophenyl)-N-(1-methylpiperidin-3-yl)pyrido[3,4-d]pyridazin-4-amine] it is 60 nM; for `F[C@@H]1C[C@@H](Nc2nnc(-c3ccc(Cl)cc3)c3ccccc23)CN(C2CC2)C1` [Example 54, 4-(4-chlorophenyl)-N-((3R,5R)-1-cyclopropyl-5-fluoropiperidin-3-yl)phthalazin-1-amine] it is 1200 nM.
The figure for `CC(C)[C@@H]1CN(C)C[C@H]1Nc1nnc(-c2ccc(Cl)cc2)c2ccccc12` [Example 165, 4-(4-chlorophenyl)-N-((3S,4R)-4-isopropyl-1-methylpyrrolidin-3-yl)phthalazin-1-amine] is 3470 nM; for `CCN1CCCC1CNc1nnc(-c2ccc(OC)cc2)c2ccccc12` (centres unmarked) [Example 125, N-((1-ethylpyrrolidin-2-yl)methyl)-4-(4-methoxyphenyl)phthalazin-1-amine] it is 2750 nM; for `CC(=O)N1CCc2c(NC3CCCN(C)C3)nnc(-c3ccc(Cl)cc3)c2C1` (centres unmarked) [Example 104, 1-(4-(4-chlorophenyl)-1-((1-methylpiperidin-3-yl)amino)-7,8-dihydropyrido[3,4-d]pyridazin-6(5H)-yl)ethan-1-one] it is 1660 nM.
In turn, `CCN1CCc2c(NC3CCCN(C)C3)nnc(-c3ccc(Cl)cc3)c2C1` (centres unmarked) [Example 100, 4-(4-chlorophenyl)-6-ethyl-N-(1-methylpiperidin-3-yl)-5,6,7,8-tetrahydropyrido[3,4-d]pyridazin-1-amine] came in with a half-inhibitory concentration (IC50) of 2690 nM.
The compound `COc1ccc(-c2nnc(N[C@@H]3CCCN(C4CC4)C3)c3c2CCOC3)cc1` [Example 228, (R)—N-(1-cyclopropylpiperidin-3-yl)-1-(4-methoxyphenyl)-7,8-dihydro-5H-pyrano[3,4-d]pyridazin-4-amine] came in with an IC50 of 23 nM.
For `Cc1ccc(-c2nnc(Nc3cccc(O)c3)c3ccccc23)cc1` [Example 38, 3-((4-(p-tolyl)phthalazin-1-yl)amino)phenol] the value was 1120 nM; for `COc1ccc(-c2nnc(Nc3cccc(O)c3)c3c2CCCC3)cc1` [Example 199, 3-((4-(4-methoxyphenyl)-5,6,7,8-tetrahydrophthalazin-1-yl)amino)phenol], 2750 nM; for `CN1CCCC(Nc2nnc(-c3ccccc3)c3ccccc23)C1` (centres unmarked) [Example 42, N-(1-methylpiperidin-3-yl)-4-phenylphthalazin-1-amine], 1150 nM.
For `CN1CCCC(Nc2nnc(-c3ccc(Cl)cc3Cl)c3cnccc23)C1` (centres unmarked) [Example 52, 4-(2,4-dichlorophenyl)-N-(1-methylpiperidin-3-yl)pyrido[3,4-d]pyridazin-1-amine] the value was 2400 nM; for `CN1CCC[C@H](Nc2nnc(-c3ccc(Cl)cc3F)c3ccncc23)C1` [Example 70, (S)-1-(4-chloro-2-fluorophenyl)-N-(1-methylpiperidin-3-yl)pyrido[3,4-d]pyridazin-4-amine], 2000 nM; for `CN1CCC[C@@H](Nc2nnc(-c3ccc(C(F)(F)F)cc3O)c3ccncc23)C1` [Example 90, (R)-2-(4-((1-methylpiperidin-3-yl)amino)pyrido[3,4-d]pyridazin-1-yl)-5-(trifluoromethyl)phenol], 3 nM.
In the case of `CN1CCCC(Nc2nnc(-c3ccc(Cl)cc3Cl)c3ccncc23)C1` (centres unmarked) [Example 51, 1-(2,4-dichlorophenyl)-N-(1-methylpiperidin-3-yl)pyrido[3,4-d]pyridazin-4-amine], the IC50 turned out to be 158 nM.
The figure for `Clc1ccc(-c2nnc(NC3CCCN(C4CCC4)C3)c3ccccc23)cc1` (centres unmarked) [Example 145, 4-(4-chlorophenyl)-N-(1-cyclobutylpiperidin-3-yl)phthalazin-1-amine] is 132 nM.
In turn, `CN1CC2CCCC(C1)C2Nc1nnc(-c2ccc(Cl)cc2)c2ccccc12` (centres unmarked) [Example 151, 4-(4-chlorophenyl)-N-(3-methyl-3-azabicyclo[3.3.1]nonan-9-yl)phthalazin-1-amine] returned an IC50 of 3020 nM.
For `CC1(O)CCCC(Nc2nnc(-c3ccc(Cl)cc3)c3ccccc23)C1` (centres unmarked) [Example 138, 3-((4-(4-chlorophenyl)phthalazin-1-yl)amino)-1-methylcyclohexan-1-ol] the value was 1110 nM; for `Cc1ccc(-c2nnc(NC3CCCN(C)C3)c3ccccc23)cc1` (centres unmarked) [Example 15, N-(1-methylpiperidin-3-yl)-4-(p-tolyl)phthalazin-1-amine], 115 nM; for `FC(F)CN1CCC(Nc2nnc(-c3ccc(Cl)cc3)c3ccccc23)C1` (centres unmarked) [Example 170, 4-(4-chlorophenyl)-N-(1-(2,2-difluoroethyl)pyrrolidin-3-yl)phthalazin-1-amine], 2140 nM.
`FC(F)(F)CN1CCCC(Nc2nnc(-c3ccc(Cl)cc3)c3ccccc23)C1` (centres unmarked) [Example 147, 4-(4-chlorophenyl)-N-(1-(2,2,2-trifluoroethyl)piperidin-3-yl)phthalazin-1-amine] gave an IC50 of 1480 nM.
`Cc1ccccc1-c1nnc(NC2CCCN(C)C2)c2ccccc12` (centres unmarked) [Example 12, N-(1-methylpiperidin-3-yl)-4-(o-tolyl)phthalazin-1-amine] yielded an IC50 of 2570 nM.
The figure for `COc1ccc(-c2nnc(N[C@@H]3CCCN(C)C3)c3cnccc23)c(F)c1` [Example 57, (R)-1-(2-fluoro-4-methoxyphenyl)-N-(1-methylpiperidin-3-yl)pyrido[3,4-d]pyridazin-4-amine] is 21 nM; for `CN1CCC(Nc2nnc(-c3ccc(Cl)cc3)c3ccccc23)C1=O` (centres unmarked) [Example 109, 3-((4-(4-chlorophenyl)phthalazin-1-yl)amino)-1-methylpyrrolidin-2-one] it is 4900 nM.
The figure for `COc1ccc(-c2nnc(N[C@H]3CC[C@](O)(C(F)(F)F)CC3)c3ccccc23)cc1` [Example 128, trans-4-((4-(4-methoxyphenyl)phthalazin-1-yl)amino)-1-(trifluoromethyl)cyclohexan-1-ol] is 3020 nM.
